Experimental data taken from paper PMC3158555, “Cofactor-mediated conformational control in the bifunctional kinase/RNase Ire1” (BMC Biology, 2011).

target: T1, Ire1KR32 (cytosolic kinase/RNase portion of Ire1) (Saccharomyces cerevisiae, UniProt P32361); test: inhibition of ADP-stimulated RNase cleavage of […]-RNA hairpin; format: biochemical; details: competition with 0.2 mM ADP, 3 µM Ire1KR32, 2 mM Mg2+, pH 7.4, 30 °C; kinase ATP pocket; paper prints mmol for mM
T1 construct: cytoplasmic kinase + RNase domains with N-terminal 32-aa extension from the linker to the transmembrane segment; GST fusion (pGEX-6P-2) in E. coli, GST cleaved by PreScission; autophosphorylated (~20 phosphates); homo-oligomerizes
T1 sequence (P32361 641-1115): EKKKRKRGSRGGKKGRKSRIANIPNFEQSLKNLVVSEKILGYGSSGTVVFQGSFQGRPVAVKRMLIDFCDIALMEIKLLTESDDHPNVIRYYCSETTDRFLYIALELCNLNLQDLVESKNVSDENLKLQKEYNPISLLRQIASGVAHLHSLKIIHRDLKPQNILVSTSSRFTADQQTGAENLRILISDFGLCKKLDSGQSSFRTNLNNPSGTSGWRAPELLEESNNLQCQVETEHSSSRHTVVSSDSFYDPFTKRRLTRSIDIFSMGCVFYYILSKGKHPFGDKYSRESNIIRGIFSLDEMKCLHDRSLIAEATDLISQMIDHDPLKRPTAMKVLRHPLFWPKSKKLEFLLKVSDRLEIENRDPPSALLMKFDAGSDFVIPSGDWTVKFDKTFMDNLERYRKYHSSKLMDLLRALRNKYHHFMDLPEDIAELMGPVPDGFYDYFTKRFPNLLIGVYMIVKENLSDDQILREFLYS

Row | Compound | Ki
1 | Nc1ncnc2c1ncn2[C@@H]1O[C@H](COP(=O)(O)OP(=O)(O)S)[C@@H](O)[C@H]1O (some centres unmarked) [ADPβS] | 0.2 ± 0.07 mM
2 | Nc1ncnc2c1ncn2[C@@H]1O[C@H](COP(=O)(O)OP(=O)(O)OP(=O)(O)O)[C@@H](O)[C@H]1O [ATP] | 0.1 ± 0.04 mM

target: T1, Ire1KR32 (cytosolic kinase/RNase portion of Ire1); test: RNase activation, hyperbolic fit of kobs versus cofactor ([…]P-RNA hairpin); format: biochemical; details: 3 µM Ire1KR32, 2 mM Mg2+, pH 7.4, 30 °C; allosteric activator in kinase ATP pocket

Row | Compound | Kcof (apparent cofactor binding constant)
3 | Nc1ncnc2c1ncn2[C@@H]1O[C@H](COP(=O)(O)OP(=O)(O)O)[C@@H](O)[C@H]1O [ADP] | ADP bound with an apparent affinity similar to that of ATP
4 | Nc1ncnc2c1ncn2[C@@H]1O[C@H](COP(=O)(O)O)[C@@H](O)[C@H]1O [AMP] | the apparent affinity for AMP was tenfold lower than that observed for ATP
5 | c1cc(Nc2cc(C3CC3)[nH]n2)nc(Nc2ccc3[nH]cnc3c2)n1 [APY29] | APY24 and APY29 activated Ire1 as well as or better than ADP
6 | Nc1ncnc2c1ncn2[C@@H]1O[C@H](COP(=O)(O)OP(=O)(O)OP(=O)(O)O)[C@@H](O)[C@H]1O [ATP] | the apparent affinity for AMP was tenfold lower than that observed for ATP
7 | Nc1ncnc2c1ncn2[C@@H]1O[C@H](COP(=O)(O)OP(=O)(O)OP(O)(O)=S)[C@@H](O)[C@H]1O [ATPγS] | ATPγS bound to Ire1 slightly more weakly than ATP
8 | CCN(CC)CCNC(=O)c1c(C)[nH]c(/C=C2\C(=O)Nc3ccc(F)cc32)c1C [sunitinib] | activated Ire1KR32 to a similar extent as AMP and ATP
